# Values of other authors in US12121558B2 (priority 2019, dated 2024).
structure (smiles),measurement,setting,value
"O=c1c(O)c(-c2ccc(O)c(O)c2)oc2cc(O)cc(O)c12 [quercetin, Quercetin]",elimination half-life,after oral ingestion of quercetin containing foods or supplements,1 to 2 h
same,bioavailability,"in humans, low and highly variable",0-50%
